Where no end group is shown, it is not given here.
Tested on: vascular response of rat footpad blisters (CGRP, substance P, eNOS effectors)
Assay: Blister model: effect of sensory nerve peptide antagonists and eNOS inhibitor on the vascular response to 0.5% spinosad
Assay type: in vivo
Experimental: Neurogenic inflammatory responses are assessed using a well-established method (Khalil & Helme, Brain Res. 527: 292-298 (1990)). Anaesthesia is induced in outbred male Sprague-Dawley rats with pentobarbitone sodium (60 mg/kg i.p). General anaesthesia is maintained by supplementary injections of 15 mg/kg. This method of anaesthesia has been shown not to alter the basal vasodilator responses in peripheral microvasculature (Khalil & Helm; Brain Res. 500: 256-262 (1989)). The left jugular vein is cannulated with polyethylene tubing for the intravenous administration of heparin/saline solution or drugs. Body temperature is maintained at 37° C. At the completion of the experiment, the animals are sacrificed by barbiturate overdose.
Blisters are induced in the middle region of the hindpaw in anaesthetised rats using vacuum pressure of −40 kPa applied for 30 minutes via a metal suction cap heated to 40° C. Once a blister is established, the epidermis (surface epithelium) is removed and a perspex chamber with inlet and outlet ports secured over the blister base. Ringer's solution is perfused over the blister surface and maintained by a peristaltic pump at 4 ml/hr to establish baseline measurements. Relative blood flow is monitored over time by a laser Doppler flowmeter via a probe placed immediately above the blister base and relative blood flux (volts) monitored continuously on a chart recorder. […]

Substance: CGRP8-37: CGRP antagonist; Auspep (VTHRLAGLLSRSGGVVKNNFVPTNVGSKAF; ends and bridges not checked; UniProt P06881 90-119, looked up, fragment)
- % contribution of effector to the vascular response of spinosad (effector blocked by the perfused substance (eNOS, CGRP, Substance P), 0.5% spinosad): 27%
- Blood flow as area under the curve (substance perfused 10 minutes, then co-perfused with 0.5% spinosad 30 minutes (Control = 0.5% spinosad alone), L-NAME 100 μM, CGRP8-37 1 μM, spantide II 10 μM, mean ± SEM, n = 6): 83.2 (±6.5) cm^2
